Calls of active or inactive are those of the source.
Legend:
[1] = molecular target: T1, Neuronal acetylcholine receptor; alpha4/beta2 (Homo sapiens) (UniProt P17787+P43681); experiment: Negative allosteric modulation of alpha4beta2 nAChR (unknown origin) expressed in Xenopus laevis oocytes assessed as decrease in acetylcholine-induced channel current at 100 uM at -70 mV holding potential by two-microelectrode voltage clamp method relative to control; type: cell-based
[2] = molecular target: T2, GABA-A receptor; anion channel (Rattus norvegicus) (UniProt O09028+P15431+P18506+P18508+P19969+P20236+P23574+P23576+P28471+P28473+P30191+P62813+P63079+P63138+Q91ZM7+Q9ES14); experiment: Positive allosteric modulation of GABA-A receptor in Sprague-Dawley rat primary hippocampal neurons assessed as channel-mediated tonic current at 10 uM pretreated for 300 secs followed by BMI addition for 10 secs at -70 mV holding potential by patch-clamp method; type: protein-complex assay
[3] = molecular target: GABA-A receptor; alpha-1/beta-3/gamma-2 (Homo sapiens, UniProt P14867+P18507+P28472, N265S); experiment: Positive allosteric modulation of GABA-A alpha1beta3(N265S)gamma2S mutant receptor (unknown origin) expressed in Xenopus laevis oocytes assessed as increase in GABA-induced chloride current after 15 mins at -70 mV holding potential by two-microelectrode voltage clamp method; type: cell-based
[4] = molecular target: GABA-A receptor; alpha-1/beta-3/gamma-2 (Homo sapiens, UniProt P14867+P18507+P28472, F289S); experiment: Positive allosteric modulation of GABA-A alpha1beta3(F289S)gamma2S mutant receptor (unknown origin) expressed in Xenopus laevis oocytes assessed as increase in GABA-induced chloride current after 15 mins at -70 mV holding potential by two-microelectrode voltage clamp method; type: cell-based
[5] = molecular target: Glutamate [NMDA] receptor (Homo sapiens) (UniProt Q05586+Q12879+Q13224+O15399+O60391+Q14957+Q8TCU5); experiment: Positive allosteric modulation of NMDA receptor (unknown origin) expressed in Xenopus laevis oocytes assessed as increase in NMDA-induced channel current at 10 to 100 uM at -70 mV holding potential by two-microelectrode voltage clamp method; type: cell-based
[6] = molecular target: Transient receptor potential cation channel subfamily V member 1 (Homo sapiens) (UniProt Q8NER1); experiment: Agonist activity at TRPV1 receptor (unknown origin) expressed in Xenopus laevis oocytes assessed as increase in channel current at 10 to 100 uM at -70 mV holding potential by two-microelectrode voltage clamp method; type: cell-based
[7] = molecular target: Metabotropic glutamate receptor 2 (Homo sapiens) (UniProt Q14416); experiment: Positive allosteric modulation of mGluR2 (unknown origin) expressed in Xenopus laevis oocytes assessed as increase in glutamate-induced channel current at 10 to 100 uM at -70 mV holding potential by two-microelectrode voltage clamp method; type: cell-based
[8] = system: Mus musculus; experiment: Anticonvulsive activity in C57BL/6N mouse assessed as protection against 39.5 +/- 0.8 mg/kg pentylenetetrazole-induced seizures by measuring elevation in seizure threshold at 0.1 to 0.3 mg/kg, ip pretreated for 30 mins followed by pentylenetetrazole tail-vein infusion; type: functional, organism-based
[9] = molecular target: T3, GABA A receptor alpha-1/beta-1/gamma-2 (Homo sapiens, UniProt P14867+P18505+P18507); experiment: Positive allosteric modulation of GABA-A alpha1beta1gamma2S receptor (unknown origin) expressed in Xenopus laevis oocytes assessed as increase in GABA-induced chloride current at 300 uM after 15 mins at -70 mV holding potential by two-microelectrode voltage clamp method relative to control; type: cell-based; conditions: 0.25 h
T3 sequence (P14867 whole entry): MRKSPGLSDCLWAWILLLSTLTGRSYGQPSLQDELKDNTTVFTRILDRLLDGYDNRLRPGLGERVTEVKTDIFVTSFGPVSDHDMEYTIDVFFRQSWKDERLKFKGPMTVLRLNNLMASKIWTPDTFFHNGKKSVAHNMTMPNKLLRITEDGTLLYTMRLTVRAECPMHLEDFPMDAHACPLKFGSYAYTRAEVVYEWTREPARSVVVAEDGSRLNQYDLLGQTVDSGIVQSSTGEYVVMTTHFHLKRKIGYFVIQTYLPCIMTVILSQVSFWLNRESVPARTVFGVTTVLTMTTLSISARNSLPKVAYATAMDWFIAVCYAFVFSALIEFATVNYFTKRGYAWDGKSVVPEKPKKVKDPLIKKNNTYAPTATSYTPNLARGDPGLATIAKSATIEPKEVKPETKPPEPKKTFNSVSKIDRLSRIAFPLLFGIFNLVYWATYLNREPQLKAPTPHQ
T3 sequence (P18507 whole entry): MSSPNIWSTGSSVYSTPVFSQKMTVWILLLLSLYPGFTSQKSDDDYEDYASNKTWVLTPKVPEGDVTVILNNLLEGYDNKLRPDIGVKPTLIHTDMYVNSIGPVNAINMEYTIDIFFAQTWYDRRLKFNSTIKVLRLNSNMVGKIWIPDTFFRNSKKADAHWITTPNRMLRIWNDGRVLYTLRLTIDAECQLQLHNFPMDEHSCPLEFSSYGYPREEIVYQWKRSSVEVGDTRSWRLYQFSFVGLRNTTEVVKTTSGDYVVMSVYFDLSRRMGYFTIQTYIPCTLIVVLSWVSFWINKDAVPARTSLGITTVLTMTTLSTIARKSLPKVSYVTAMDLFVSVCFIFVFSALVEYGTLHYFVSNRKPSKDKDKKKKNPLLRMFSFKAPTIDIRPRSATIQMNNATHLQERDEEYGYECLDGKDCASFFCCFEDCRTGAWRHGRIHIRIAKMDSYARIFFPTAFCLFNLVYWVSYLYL
T3 sequence (P18505 whole entry): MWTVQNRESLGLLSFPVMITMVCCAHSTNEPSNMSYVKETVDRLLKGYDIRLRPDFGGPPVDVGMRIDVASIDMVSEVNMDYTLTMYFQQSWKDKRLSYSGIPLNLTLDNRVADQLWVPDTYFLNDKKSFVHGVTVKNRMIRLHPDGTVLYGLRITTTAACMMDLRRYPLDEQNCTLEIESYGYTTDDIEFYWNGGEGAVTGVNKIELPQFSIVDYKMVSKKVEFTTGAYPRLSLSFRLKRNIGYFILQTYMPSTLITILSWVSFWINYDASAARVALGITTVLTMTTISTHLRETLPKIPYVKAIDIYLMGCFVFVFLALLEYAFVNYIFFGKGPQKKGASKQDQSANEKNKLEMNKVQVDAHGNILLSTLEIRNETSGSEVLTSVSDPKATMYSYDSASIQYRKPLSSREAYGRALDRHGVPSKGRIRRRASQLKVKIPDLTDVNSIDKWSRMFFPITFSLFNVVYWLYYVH

[10] = molecular target: T3, GABA A receptor alpha-1/beta-1/gamma-2; experiment: Positive allosteric modulation of GABA-A alpha1beta1gamma2S receptor (unknown origin) expressed in Xenopus laevis oocytes assessed as increase in GABA-induced chloride current after 15 mins at -70 mV holding potential by two-microelectrode voltage clamp method; type: cell-based
[11] = molecular target: T2, GABA-A receptor; anion channel (Rattus norvegicus); experiment: Positive allosteric modulation of GABA-A receptor in Sprague-Dawley rat primary hippocampal neurons assessed as miniature inhibitory postsynaptic current amplitude at 10 uM for 300 secs at -70 mV holding potential by patch-clamp method; type: protein-complex assay; design: scale not given: the % may be the effect or the level left
[12] = system: Oocyte; experiment: Induction of current in Xenopus laevis oocytes at 10 to 100 uM after 5 mins by two-microelectrode voltage clamp method; type: cell-based
[13] = molecular target: GABA A receptor alpha-1/beta-1/gamma-2 (Homo sapiens, UniProt P14867+P18505+P18507, S290N); experiment: Positive allosteric modulation of GABA-A alpha1beta1(S290N)gamma2S mutant receptor (unknown origin) expressed in Xenopus laevis oocytes assessed as increase in GABA-induced chloride current after 15 mins at -70 mV holding potential by two-microelectrode voltage clamp method; type: cell-based
[14] = molecular target: T4, GABA-A receptor; alpha-1/beta-2/gamma-2 (Homo sapiens, UniProt P14867+P18507+P47870); experiment: Positive allosteric modulation of GABA-A alpha1beta2gamma2S receptor (unknown origin) expressed in Xenopus laevis oocytes assessed as increase in GABA-induced chloride current after 15 mins at -70 mV holding potential by two-microelectrode voltage clamp method; type: cell-based
T4 sequence (P14867 whole entry): T3 sequence (P14867 whole entry)
T4 sequence (P47870 whole entry): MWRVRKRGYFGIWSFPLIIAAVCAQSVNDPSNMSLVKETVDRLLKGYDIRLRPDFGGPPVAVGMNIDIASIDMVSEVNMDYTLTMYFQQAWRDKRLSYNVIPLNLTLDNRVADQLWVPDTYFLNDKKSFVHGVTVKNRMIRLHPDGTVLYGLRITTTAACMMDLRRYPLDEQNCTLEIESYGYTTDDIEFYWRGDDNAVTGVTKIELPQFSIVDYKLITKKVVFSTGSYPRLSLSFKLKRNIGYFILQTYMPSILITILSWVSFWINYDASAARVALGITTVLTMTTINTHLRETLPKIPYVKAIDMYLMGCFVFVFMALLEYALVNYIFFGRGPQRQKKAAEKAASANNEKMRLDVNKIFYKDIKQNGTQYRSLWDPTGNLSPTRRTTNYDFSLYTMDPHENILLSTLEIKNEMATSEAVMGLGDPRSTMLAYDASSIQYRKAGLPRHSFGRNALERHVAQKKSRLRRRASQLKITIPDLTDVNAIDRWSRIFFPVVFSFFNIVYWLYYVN
T4 sequence (P18507 whole entry): T3 sequence (P18507 whole entry)

[15] = molecular target: T5, GABA-A receptor; alpha-1/beta-3/gamma-2 (Homo sapiens, UniProt P14867+P18507+P28472); experiment: Positive allosteric modulation of GABA-A alpha1beta3gamma2S receptor (unknown origin) expressed in Xenopus laevis oocytes assessed as increase in GABA-induced chloride current after 15 mins at -70 mV holding potential by two-microelectrode voltage clamp method; type: cell-based
T5 sequence (P14867 whole entry): T3 sequence (P14867 whole entry)
T5 sequence (P18507 whole entry): T3 sequence (P18507 whole entry)
T5 sequence (P28472 whole entry): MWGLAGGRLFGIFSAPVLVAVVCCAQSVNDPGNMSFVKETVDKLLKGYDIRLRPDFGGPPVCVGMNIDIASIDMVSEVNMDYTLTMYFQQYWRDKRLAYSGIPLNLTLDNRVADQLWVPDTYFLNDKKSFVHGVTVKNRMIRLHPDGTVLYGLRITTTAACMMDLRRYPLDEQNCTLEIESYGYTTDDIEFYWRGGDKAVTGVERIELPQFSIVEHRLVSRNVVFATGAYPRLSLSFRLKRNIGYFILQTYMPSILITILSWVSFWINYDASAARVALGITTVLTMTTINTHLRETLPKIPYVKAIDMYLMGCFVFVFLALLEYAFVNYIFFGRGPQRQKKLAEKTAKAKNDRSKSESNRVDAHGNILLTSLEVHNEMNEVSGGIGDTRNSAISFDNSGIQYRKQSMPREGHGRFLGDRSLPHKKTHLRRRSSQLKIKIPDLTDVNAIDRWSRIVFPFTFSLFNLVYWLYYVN

[16] = system: Mus musculus; experiment: Anticonvulsive activity in C57BL/6N mouse assessed as protection against 52.6 +/- 2.1 mg/kg pentylenetetrazole-induced seizures by measuring elevation in seizure threshold at 0.3 mg/kg, ip pretreated for 30 mins followed by pentylenetetrazole tail-vein infusion; type: functional, organism-based
[17] = molecular target: T2, GABA-A receptor; anion channel (Rattus norvegicus); experiment: Positive allosteric modulation of GABA-A receptor in Sprague-Dawley rat primary hippocampal neurons assessed as increase in channel-mediated tonic current at 10 uM for 300 secs at -70 mV holding potential by patch-clamp method; type: protein-complex assay
[18] = molecular target: T1, Neuronal acetylcholine receptor; alpha4/beta2 (Homo sapiens); experiment: Positive allosteric modulation of alpha4beta2 nAChR (unknown origin) expressed in Xenopus laevis oocytes assessed as increase in acetylcholine-induced channel current at 10 to 100 uM at -70 mV holding potential by two-microelectrode voltage clamp method; type: cell-based
[19] = molecular target: T2, GABA-A receptor; anion channel (Rattus norvegicus); experiment: Positive allosteric modulation of GABA-A receptor in Sprague-Dawley rat primary hippocampal neurons assessed as miniature inhibitory postsynaptic current mean frequency at 10 uM for 300 secs at -70 mV holding potential by patch-clamp method; type: protein-complex assay; design: scale not given: the % may be the effect or the level left
[20] = molecular target: T2, GABA-A receptor; anion channel (Rattus norvegicus); experiment: Positive allosteric modulation of GABA-A receptor in Sprague-Dawley rat primary hippocampal neurons assessed as prolongation of miniature inhibitory postsynaptic current decay time at 10 uM for 300 secs at -70 mV holding potential by patch-clamp method; type: protein-complex assay; design: scale not given: the % may be the effect or the level left

Metabotropic glutamate receptor 2 (Homo sapiens), sequence (Q14416 19-872 limits assumed): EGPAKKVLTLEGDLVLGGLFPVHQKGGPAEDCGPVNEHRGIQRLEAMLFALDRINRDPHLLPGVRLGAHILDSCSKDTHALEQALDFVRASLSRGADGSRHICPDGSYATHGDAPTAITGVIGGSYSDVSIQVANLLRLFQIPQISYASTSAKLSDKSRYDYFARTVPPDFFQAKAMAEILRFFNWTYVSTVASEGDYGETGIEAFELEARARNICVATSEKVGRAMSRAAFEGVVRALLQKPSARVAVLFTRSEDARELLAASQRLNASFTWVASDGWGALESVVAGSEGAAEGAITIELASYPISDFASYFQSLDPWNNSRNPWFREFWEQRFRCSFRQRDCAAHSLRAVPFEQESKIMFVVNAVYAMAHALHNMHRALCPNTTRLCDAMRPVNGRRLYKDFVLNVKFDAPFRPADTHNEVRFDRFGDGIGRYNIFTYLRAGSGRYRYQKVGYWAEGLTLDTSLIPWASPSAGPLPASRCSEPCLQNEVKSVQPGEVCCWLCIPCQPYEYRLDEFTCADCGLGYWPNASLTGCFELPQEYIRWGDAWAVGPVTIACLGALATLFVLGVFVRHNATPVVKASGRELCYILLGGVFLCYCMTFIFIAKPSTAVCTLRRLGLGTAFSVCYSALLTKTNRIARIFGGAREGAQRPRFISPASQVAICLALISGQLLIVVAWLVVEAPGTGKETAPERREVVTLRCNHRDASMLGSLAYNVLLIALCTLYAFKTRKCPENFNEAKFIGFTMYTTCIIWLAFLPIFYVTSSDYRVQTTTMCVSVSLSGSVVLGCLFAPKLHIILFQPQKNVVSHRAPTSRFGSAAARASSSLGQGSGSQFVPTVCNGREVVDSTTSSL
Transient receptor potential cation channel subfamily V member 1 (Homo sapiens), sequence (Q8NER1 whole entry): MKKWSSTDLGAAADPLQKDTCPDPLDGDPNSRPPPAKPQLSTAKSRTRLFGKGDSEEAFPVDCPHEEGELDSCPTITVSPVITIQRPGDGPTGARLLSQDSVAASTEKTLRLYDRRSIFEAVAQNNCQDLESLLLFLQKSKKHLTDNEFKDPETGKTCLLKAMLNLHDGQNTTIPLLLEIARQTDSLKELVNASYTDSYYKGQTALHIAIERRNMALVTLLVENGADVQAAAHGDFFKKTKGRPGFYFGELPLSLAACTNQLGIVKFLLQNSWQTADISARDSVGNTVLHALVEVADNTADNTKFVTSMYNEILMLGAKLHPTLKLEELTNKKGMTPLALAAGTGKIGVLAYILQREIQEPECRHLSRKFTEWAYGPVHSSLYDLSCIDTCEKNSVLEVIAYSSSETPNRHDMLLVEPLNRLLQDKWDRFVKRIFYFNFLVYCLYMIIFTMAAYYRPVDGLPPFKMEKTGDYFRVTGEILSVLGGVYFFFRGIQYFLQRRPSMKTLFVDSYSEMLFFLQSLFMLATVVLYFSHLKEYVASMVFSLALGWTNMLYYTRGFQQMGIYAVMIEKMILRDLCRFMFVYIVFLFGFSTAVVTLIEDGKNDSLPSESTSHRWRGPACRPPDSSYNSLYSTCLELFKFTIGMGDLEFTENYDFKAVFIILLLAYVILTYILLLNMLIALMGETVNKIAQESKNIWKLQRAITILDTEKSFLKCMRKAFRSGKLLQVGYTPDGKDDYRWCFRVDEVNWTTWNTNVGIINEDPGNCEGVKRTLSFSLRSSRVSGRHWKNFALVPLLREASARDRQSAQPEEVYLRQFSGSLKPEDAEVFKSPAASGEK

`C/C(=C/C#N)c1ccc(Cl)cc1Cl` gave an inhibition [1] of 70%, an Activity [2] of -38 pA and an EC50 [3] of 103 µM. The EC50 [4] was 171 µM, the Activity [5] was “inactive” and the Activity [6] was “inactive”. The Activity [7] was “inactive”, the Activity [8] was “Active” and the Emax at 300 µM [9] was 883%. The EC50 [10] was 148 µM, the Activity [11] was 97% and the Activity [12] was “Non-Toxic”. For the same molecule, the EC50 [13] was 10 µM, the EC50 [14] was 15 µM and the EC50 [15] was 13 µM. The Activity [16] was “Active”, the Activity [17] was “Active” and the Activity [18] was “inactive”. It also gave an Activity [19] of 78% and an Activity [20] of 213%.

`C/C(=C\C#N)c1ccc(Cl)cc1Cl` showed an EC50 [15] of 100 µM.

With `Cl/C(=C\n1cncn1)c1ccc(Cl)cc1Cl` [LORECLEZOLE] the EC50 [15] was 11 µM.

Work on `CC(=CC#N)c1ccc(C)cc1Cl` (mixture of isomers) yielded an EC50 [10] of 271 µM, an EC50 [14] of 41 µM and an EC50 [15] of 41 µM.

`CC(CC#N)c1ccc(Cl)cc1Cl` (racemic) was tested, and the EC50 [15] was 120 µM.
